We go through ten compounds from US20180360845A1, “MUSCARINIC COMBINATION OF A SELECTIVE M2-ANTAGONIST AND A PERIPHERAL NON-SELECTIVE ANTAGONIST FOR TREATING HYPOCHOLINERGIC DISORDERS” (CHASE PHARMACEUTICALS CORPORATION, priority 2015, published 2018).

Data set [1] is described as follows: Dose-response to otenzepad in a mouse model of diarrhea (fecal pellet count). Type of data set: in vivo, Male Swiss mice. As to conditions: increasing doses of otenzepad, T0 to T+4 h. The text has this: Male Swiss mice (4-6 weeks old), N=10 per treatment group were used, and treated with either vehicle (vehicle group) or increasing doses of otenzepad, a representative M2-antagonist. Mice were randomly assigned to one of two experimental groups (vehicle; or increasing doses of otenzepad). Each animal was identified by its group name, cage number, series (day) of experiment, and number (1 to 10) written with permanent ink on the tail. Mice were placed individually in cages without any bedding materials. During the experiment the number of fecal pellets was counted at different time-points, starting one hour before the time of the administration of the test compound (T0), as outlined below:
(§1) T−1 h to T0: counting of the accumulated fecal pellets excreted.
T0: administration of the test compound.
T0 to T+2 h: counting of the accumulated fecal pellets excreted.
T+2 h to T+4 h: counting of the accumulated fecal pellets excreted.
The total number of fecal pellets for each mouse was counted over time. An analysis of variance (ANOVA) was performed on the results. Fisher's Protected Least Significant Difference was used for pairwise comparisons; p values≤0.05 were considered significant. Grubbs' test (http://www.graphpad.com/quickcalcs/Grubbsl.cfm) was used to detect outliers for each parameter in each experimental group.

Data set [2] can be described thus: T-maze continuous alternation task (T-CAT) with solifenacin and otenzepad. The data set is classed as in vivo, Male Swiss mice. The text has this:
Evaluation of Cognition with Solifenacin and Otenzepad in the T-Maze Alternation Task in Mice The T-maze continuous alternation task (T-CAT) is useful as model for studying compounds with cognitive enhancing properties. The T-maze consists of 2 choice arms and 1 start arm mounted to a square centre. Manual doors are provided to close specific arms during the force choice alternation task. Male Swiss mice (4-6 weeks old), N=10 per treatment group were used, and were pre-treated with: • Solifenacin at the dose that blocked fecal pellet excretion in Experiment 2 of Example 1. […] Mice were randomly assigned to one of the different experimental treatment groups. Each animal was identified by its group name, cage number, series (day) of experiment, and number (1 to 10) written with permanent ink on the tail. The T-maze apparatus is made of gray Plexiglas with a main stem (55 cm long×10 cm wide×20 cm high) and two arms (30 cm long×10 cm wide×20 cm high) positioned at 90 degree angle relative to the main stem. […] The percentage of alternation over the 14 free-choice trials was determined for each mouse and was used as an index of working memory performance. […] The drug-induced improvement of memory was calculated by setting the respective response of the saline/vehicle as 100% and that of the test group as 0% reversion. […]

For data set [3] the following is noted: cited from earlier work.
For data set [4] the following is noted: aged memory impaired rats; cited from earlier work.
For data set [5] the following is noted: young animals; cited from earlier work.
For data set [6] the following is noted: traumatic brain-injured rats; cited from earlier work.
The conditions of data set [7]: clinical study; cited from earlier work.
For data set [8] the following is noted: cited from earlier work. This is another data set of the same source.
The conditions of data set [9]: cited from earlier work. The source holds these as a separate data set.
The conditions of data set [10]: in vivo; cited from earlier work.
The conditions of data set [11]: in vivo; cited from earlier work. The source holds these as a separate data set.
For data set [12] the following is noted: bilateral intrastriatal infusion, female rats; cited from earlier work.
The conditions of data set [13]: transdermal, rats, [14C] label; cited from earlier work.
A short description of data set [14]: Antagonism of otenzepad-induced diarrhea in mice by solifenacin. As to conditions: solifenacin 2 to 40 mg/kg given 30 min before otenzepad. Type of data set: in vivo, Male Swiss mice. Here is the method: Male Swiss mice (4-6 weeks old), N=10 per treatment group were used. Animals were pretreated with solifenacin (a representative peripheral muscarinic receptor antagonist) or vehicle; 30 minutes later animals were treated with otenzepad at a dose that caused diarrhea (as determined in Experiment 1). The dose of solifenacin ordinarily ranged from 2 to 40 mg/kg. Mice were placed individually in cages without any bedding materials. During the experiment the number of fecal pellets was counted at different time-points as outlined below:
as §1
T0: administration of solifenacin.
T30 min: administration of vehicle or otenzepad.
T 30 min to T 2.5 h: counting of accumulated fecal pellets excreted.
T+2.5 h to T+4.5 h: counting of accumulated fecal pellets excreted.
The total number of fecal pellets for each mouse was counted over time. An analysis of variance (ANOVA) was performed on the results. Fisher's Protected Least Significant Difference was used for pairwise comparisons. The p value≤0.05 were considered significant. Grubbs' test (http//www at graphpad.com/quickcalcs/Grubbs.cfm) was used to detect outliers for each parameter in each experimental group.

The conditions of data set [15]: absorbed amount; cited from earlier work.

On to `CCN(CC)CC1CCCCN1CC(=O)N1c2ccccc2C(=O)Nc2cccnc21` (racemic) [otenzepad, (±)11-[[2-[(diethylamino)methyl]-1-piperidinyl]acetyl]-5,11-dihydro-6H-pyrido[2,3-b][1,4]benzodiazepin-6-one], for which the “diarrhea (number of fecal pellets)” value in data set [1] is on record as “dose-dependently causes diarrhea”. For the same compound, the “cognition (percentage of alternation, working memory)” value in data set [2] (two doses of otenzepad, in the presence of solifenacin) was “improves cognition in a dose-dependent manner”. Further, the “subjects with mild and tolerable adverse events (palpitations, dry mouth, headache)” value in [3] (270 to 810 mg/day) is on record as “about 20%”. Further, the muscarinic adverse effects result in data set [3] (single oral doses of 120, 240 and 480 mg) is on record as “does not induce manifest muscarinic adverse effects”.

Take `CCCC(C)(C)C(=O)N(CC)CCCC1CCN(CC(=O)N2c3ccc(Cl)cc3C(=O)Nc3cccnc32)CC1` [BIBN-99, 5,11-dihydro-8-chloro-11-[[4-[3-[(2,2-dimethyl-1-oxopentyl)ethylamino]propyl]-1-piperidinyl]acetyl]-6H-pyrido[2,3-b][1,4]benzodiazepin-6-one]: the “impaired ACh release and cognitive deficits” value in data set [4] is “reverses, in a dose-dependent manner”. In addition, the scopolamine-induced amnesia result in data set [5] is listed as “improves scopolamine-induced amnesia”. In addition, the cognitive deficits entry in [6] is “attenuate cognitive deficits”.

For the compound `CCn1nnc(C2=CCCN(C)C2)n1` [Lu 25-109, 5-(2-ethyl-2H-tetrazol-5-yl)-1-methyl-1,2,3,6-tetrahydropyridine], the “fixed-dose Maximum Tolerated Dose” value in data set [7] is on record as 150 mg t.i.d. The side effects result in [8] (anorexia, nausea, diarrhea, increased sweating, increased with dose) was “prominent cholinergic side effects”. Moreover, the “primary and secondary variables versus placebo (antidementia efficacy)” value in data set [8] (three doses, 6 months, 496 patients with probable AD) is recorded as “no significant differences”.

As for `COc1ccc([S+]([O-])c2ccc(C(C#N)N3CCN(C4CCCCC4)CC3)cc2)cc1` (stereo not drawn) [SCH 57790, 4-cyclohexyl-alpha-[4[[4-methoxyphenyl]sulphinyl]-phenyl]-1-piperazineacetonitrile], the brain acetylcholine release result in data set [9] (in vivo) is listed as “dose-related increase”. For the same compound, the cognitive performance result in data set [9] (rodents and nonhuman primates) is listed as “enhances cognitive performance”.

For the compound `CCCS(=O)(=O)N1CCC(C)(N2CCN([C@@H](C)c3ccc(S(=O)(=O)c4ccc5c(c4)OCO5)cc3)[C@H](C)C2)CC1` [SCH 72788, 4-[4-[1(S)-[4-[(1,3-benzodioxol-5-yl)sulfonyl]phenyl]ethyl]-3(R)-methyl-1-piperazinyl]-4-methyl-1-(propylsulfonyl)piperidine], in [10], the ACh release result is given as “increases ACh release” and the “activity in a rodent model of cognition” value is “active”.

For `Cc1cccc(C(=O)N2CCC(N3CCC(C4(c5ccc(S(=O)(=O)c6cccc(Cl)c6)cc5)OCCO4)CC3)CC2)c1N` [SCH-217443, 1′-(2-amino-3-methylbenzoyl)-4-[[[(3-chlorophenyl)sulfonyl]phenyl]ethylenedioxymethyl]-1,4′-bipiperidine], the “activity in a rat model of cognition” value in data set [11] is recorded as “shows activity”.

Turning to `COc1ccccc1CNCCCCCCNCCCCCCCCNCCCCCCNCc1ccccc1OC` [methoctramine, N,N′-bis[6-[(2-methoxybenzyl)amino]hexyl]-1,8-octanediamine], the procedural memory performance result in data set [12] was “improves procedural memory performance”.

For the compound `CCN(CC)CC#CCOC(=O)C(O)(c1ccccc1)C1CCCCC1` (centres unmarked) [oxybutynin, 4-diethylaminobut-2-ynyl 2-cyclohexyl-2-hydroxy-2-phenylethanoate], the brain penetration result in data set [13] is given as “presence of radiolabel in the brain”.

In the case of `O=C(O[C@H]1CN2CCC1CC2)N1CCc2ccccc2[C@@H]1c1ccccc1` [solifenacin, (1S)-(3R)-1-azabicyclo[2.2.2]oct-3-yl 3,4-dihydro-1-phenyl-2(1H)-iso-quinolinecarboxylate], the “antagonism of otenzepad-induced diarrhea (fecal pellets)” value in [14] was “dose-dependently antagonized the diarrhea”. The “effect of solifenacin on cognitive response to otenzepad (percentage of alternation)” value in data set [2] (solifenacin pre-treatment 30 min before otenzepad) is recorded as “did not affect cognitive response to otenzepad”.

Take `O=C(O[C@H]1C[C@H]2CC[C@@H](C1)[N+]21CCCC1)C(O)(c1ccccc1)c1ccccc1` [trospium chloride, azoniaspiro[33-benziloyloxy-(1α,5α)-nortropane-8,1′-pyrrolidine] (trospium) chloride]: the average plasma half-life entry in [15] is recorded as “about 18 hours”.
